Assay results: BigSolDB 2.1

NC(N)=S
solubility (mole fraction)
Conditions | 283.15 K | 288.15 K | 293.15 K | 298.15 K | 303.15 K | 308.15 K | 313.15 K
in ethanol | 0.0185 | 0.0206 | 0.0222 | 0.025 | 0.027 | 0.0315 | 0.0348
in methanol | 0.0421 | 0.046 | 0.0501 | 0.054 | 0.061 | 0.065 | 0.0744
in n-propanol | 0.0185 | 0.0206 | 0.0222 | 0.025 | 0.027 | 0.0315 | 0.0348
